Assay results from ChEMBL document CHEMBL1136077, “Nicotinyl aspartyl ketones as inhibitors of caspase-3” (Bioorg Med Chem Lett, 2003).

Tests used:
[1] = target: T1, Caspase-3 (Homo sapiens, UniProt P42574); test: Inhibitory concentration required against human Caspase-3
T1 sequence (P42574 whole entry): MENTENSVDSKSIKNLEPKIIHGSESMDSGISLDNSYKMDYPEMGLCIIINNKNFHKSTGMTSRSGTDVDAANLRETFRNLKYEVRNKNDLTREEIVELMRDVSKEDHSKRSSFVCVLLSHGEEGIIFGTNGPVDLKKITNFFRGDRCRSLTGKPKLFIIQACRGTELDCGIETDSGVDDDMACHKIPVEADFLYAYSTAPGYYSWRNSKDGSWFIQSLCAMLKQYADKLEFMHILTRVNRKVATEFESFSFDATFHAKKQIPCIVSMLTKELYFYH

[2] = system: NT2; test: Inhibitory concentration required against NT2 cells; details: Homo sapiens

| SMILES | IC50 [1] [µM] | IC50 [2] [µM] |
| --- | --- | --- |
| O=C[C@H](CC(=O)O)NC(=O)c1ccncc1 | > 200 | – |
| CCCN(CCC)C(=O)c1cncc(C(=O)N[C@@H](CC(=O)O)C(=O)CSCc2ccc(F)cc2)c1 | – | > 100 |
| O=C[C@H](CC(=O)O)NC(=O)c1cncc(S(=O)(=O)NC2CC2)c1 | – | 57 |
| CC(=O)N[C@@H](CC(=O)O)C(=O)N[C@@H](CCC(=O)O)C(=O)N[C@H](C(=O)N[C@H](C=O)CC(=O)O)C(C)C | – | > 100 |
| O=C(O)C[C@H](NC(=O)c1cncc(S(=O)(=O)NCc2ccccc2)c1)C(=O)CSCc1ccc(F)cc1 | – | 59 |
| CCN(CC)C(=O)c1cncc(C(=O)N[C@@H](CC(=O)O)C(=O)CSCc2ccc(F)cc2)c1 | – | > 100 |

Further compounds by falling IC50 [2], results first:

| IC50 [1] [µM] | IC50 [2] [µM] | SMILES |
| --- | --- | --- |
| – | 53 | O=C(O)C[C@H](NC(=O)c1cncc(S(=O)(=O)NC2CC2)c1)C(=O)CNCc1c(F)cccc1F |
| – | 39 | CC(C)CN(CC(C)C)C(=O)c1cncc(C(=O)N[C@@H](CC(=O)O)C(=O)CSCc2ccc(F)cc2)c1 |
| – | 25 | CCCN(CCC)S(=O)(=O)c1cncc(C(=O)N[C@@H](CC(=O)O)C(=O)CSCc2ccc(F)cc2)c1 |
| – | 22 | CN(C1CC1)S(=O)(=O)c1cncc(C(=O)N[C@@H](CC(=O)O)C(=O)CSCc2ccc(F)cc2)c1 |
| – | 21 | CN(C)S(=O)(=O)c1cncc(C(=O)N[C@@H](CC(=O)O)C(=O)CSCc2ccc(F)cc2)c1 |
| – | 16 | CCN(C(=O)c1cncc(C(=O)N[C@@H](CC(=O)O)C(=O)CSCc2ccc(F)cc2)c1)C(C)C |
| – | 12 | CCN(CC)S(=O)(=O)c1cncc(C(=O)N[C@@H](CC(=O)O)C(=O)CSCc2ccc(F)cc2)c1 |
| – | 8 | O=C(O)C[C@H](NC(=O)c1cncc(S(=O)(=O)NC2CC2)c1)C(=O)CSCc1ccc(F)cc1 |
| – | 4.3 | O=C(O)C[C@H](NC(=O)c1cncc(S(=O)(=O)NC2CC2)c1)C(=O)Oc1ccccc1 |
| – | 1.3 | O=C(O)C[C@H](NC(=O)c1cncc(S(=O)(=O)NC2CC2)c1)C(=O)COC(=O)c1cccc2ccccc12 |
